Reference: paper PMC11341359, “Assessing the immunogenicity risk of salmon calcitonin peptide impurities using in silico and in vitro methods” (Frontiers in Pharmacology, 2024)
Bridge positions count the residues as written; N and C are the ends. Ends that are not written are not given here. Peptide text beside a SMILES is read from it.

Columns and labels:
[1] = target: T1, HLA DRB1*0101 (Homo sapiens, UniProt P01903+P01911, A100R/D57E/F55L/F60I/F76Y/I96L/L162R/M171V/P40L/Q125E/R42F/V115G/Y59C); assay: Class II HLA competition binding assay; settings: short assay peptides (Cys7 replaced with Ser); competition with biotinylated allele-specific peptide, soluble HLA DR, overnight, time-resolved fluorescence, triplicate, seven concentrations; unit inferred
T1 construct: incubated overnight to equilibrium with a soluble HLA DR molecule; purchased Benaroya Research Institute, Seattle, Washington
Experimental: (§1) The class II HLA binding assays performed for these studies measure the binding affinity of a target peptide to HLA DRB1*0101, *0301, *0401, *0701, *0901, *1101, *1301, and *1501 in a standardized competition assay. This assay was originally described by [Steere et al. (2006)] and adapted by EpiVax. Previous publications have described the assay in detail ([McMurry et al., 2007]; [Ardito et al., 2011]). Briefly, unlabeled test peptides are incubated overnight to equilibrium with a soluble HLA DR molecule (Benaroya Research Institute, Seattle, Washington) and a biotinylated, allele-specific competitor peptide. The binding reaction is then neutralized, and peptide–HLA complexes are transferred to a 96-well plate coated with the pan-HLA DR antibody, clone L243 (BioLegend), and incubated overnight. The following day, Europium-labeled streptavidin (PerkinElmer, Waltham, MA) is added to identify the peptide–HLA complexes. An indirect measure of binding is determined by time-resolved fluorescence. Each peptide–HLA binding reaction is evaluated in triplicate over a range of seven concentrations. The percent inhibition values at seven distinct concentrations are used to calculate the IC50 value, defined as the concentration at which the test peptide inhibits 50% of the labeled competitor peptide.
(§2) Peptides that bind to the HLA at an IC50 value of 100 nM or less are considered very high-affinity binders. Peptides that bind at IC50 values ranging from 100 nM to 1,000 nM are considered high-affinity binders. Peptides that bind at IC50 values ranging from 1,000 nM to 10,000 nM are considered moderate-affinity binders. Peptides that bind at IC50 values ranging from 10,000 nM to 100,000 nM are considered low-affinity binders, and those with IC50 values ranging from 100,000 nM to 1,000,000 nM are considered negligible-affinity binders. […] We note that these concentrations are specific for the in vitro HLA-binding assay and are used to compare the relative binding affinities of the impurity sequences to the API and independent from the peptide concentrations described for the in vitro T-cell assays described below.

[2] = target: T2, HLA DRB1*0301 (Homo sapiens, UniProt P01903+P01911, A100K/A102G/A103R/A169T/F55Y/I96L/K41T/L162R/M171V/P40S/Q125H/Q178H/Q39Y/R42S/S66N/T106N/T262R/W38E/Y61H); assay: Class II HLA competition binding assay; settings: short assay peptides (Cys7 replaced with Ser), competition with biotinylated allele-specific peptide, soluble HLA DR, overnight, time-resolved fluorescence, triplicate, seven concentrations
T2 construct: incubated overnight to equilibrium with a soluble HLA DR molecule; purchased Benaroya Research Institute, Seattle, Washington
Experimental: as §1, §2

[3] = target: T3, HLA DRB1*0401 (Homo sapiens, UniProt P01903+P01911, A100K/A169T/F76Y/I96L/K127E/L162R/M171V/N62H/P40V/Q125Y/R42H/S133A/S149N/S66Y/V115G/V209L/W38E); assay: Class II HLA competition binding assay; settings: short assay peptides (Cys7 replaced with Ser); competition with biotinylated allele-specific peptide, soluble HLA DR, overnight, time-resolved fluorescence, triplicate, seven concentrations
T3 construct: incubated overnight to equilibrium with a soluble HLA DR molecule; purchased Benaroya Research Institute, Seattle, Washington
Experimental: as §1, §2

[4] = target: HLA DRB1*0701 (Homo sapiens, UniProt P01903+P01911, A100R/A102G/A103Q/D57E/D86V/E43K/F76Y/K127E/L162R/M171V/P40G/Q125H/Q99D/R33Q/R42Y/R54Q/S133A/S66F/T210M/V115G/Y107V/Y59L/Y89S); assay: Class II HLA competition binding assay; settings: short assay peptides (Cys7 replaced with Ser); competition with biotinylated allele-specific peptide, soluble HLA DR, overnight, time-resolved fluorescence, triplicate, seven concentrations
Experimental: as §1, §2

[5] = target: HLA DRB1*0901 (Homo sapiens, UniProt P01903+P01911, A100R/A103E/D57H/D86V/F55Y/F60I/F76Y/I96F/K127E/L162R/M171V/P40D/Q125H/Q99R/R33Q/R42F/S133A/S66N/T210M/V115G/W38K/Y107V/Y59G/Y89S); assay: Class II HLA competition binding assay; settings: short assay peptides (Cys7 replaced with Ser); competition with biotinylated allele-specific peptide, soluble HLA DR, overnight, time-resolved fluorescence, triplicate, seven concentrations
Experimental: as §1, §2

[6] = target: T4, HLA DRB1*1101 (Homo sapiens, UniProt P01903+P01911, A100R/A169T/A87E/I96F/K41T/L162R/M171V/P40S/Q125H/Q178H/Q39Y/Q99D/R42S/S66Y/T262R/V115G/W38E); assay: Class II HLA competition binding assay; settings: short assay peptides (Cys7 replaced with Ser), competition with biotinylated allele-specific peptide, soluble HLA DR, overnight, time-resolved fluorescence, triplicate, seven concentrations
T4 construct: incubated overnight to equilibrium with a soluble HLA DR molecule; purchased Benaroya Research Institute, Seattle, Washington
Experimental: as §1, §2

[7] = target: T5, HLA DRB1*1301 (Homo sapiens, UniProt P01903+P01911, A100E/A169T/K41T/L162R/M171V/P40S/Q125H/Q178H/Q39Y/Q99D/R42S/S66N/T262R/W38E/Y61H); assay: Class II HLA competition binding assay; settings: short assay peptides (Cys7 replaced with Ser), competition with biotinylated allele-specific peptide, soluble HLA DR, overnight, time-resolved fluorescence, triplicate, seven concentrations
T5 construct: incubated overnight to equilibrium with a soluble HLA DR molecule; purchased Benaroya Research Institute, Seattle, Washington
Experimental: as §1, §2

[8] = target: T6, HLA DRB1*1501 (Homo sapiens, UniProt P01903+P01911); assay: Class II HLA competition binding assay; settings: short assay peptides (Cys7 replaced with Ser); competition with biotinylated allele-specific peptide, soluble HLA DR, overnight, time-resolved fluorescence, triplicate, seven concentrations; unit inferred
T6 construct: incubated overnight to equilibrium with a soluble HLA DR molecule; purchased Benaroya Research Institute, Seattle, Washington
Experimental: as §1, §2

[9] = system: human donor PBMCs; assay: In vitro immunogenicity protocol (IVIP) naïve T-cell assay, IFNγ FluoroSpot; assay type: cell-based; settings: individual full-length peptides at 20 μg/mL, 14 days, then 48 h IFNγ FluoroSpot; 16 donors; positive: SFC > 50 per 10^6, SI ≥ 2, p < 0.05 vs medium
Experimental: To improve the sensitivity of the T-cell assays, fresh (not frozen) blood samples were obtained from human blood donors for the T-cell assays (internal observations). Specifically, PBMCs were isolated from leukocyte reduction filters obtained from the Rhode Island Blood Center (RIBC) in Providence, RI. To confirm the sufficient breadth of HLA coverage in the donor cohort, high-resolution (4-digit) class II HLA haplotyping of donors was performed at the Transplant Immunology Laboratory at Hartford Hospital in Hartford, CT, using the sequence-specific oligonucleotide method (SSP-PCR). […] supertype alleles were expressed by the donor PBMCs used in the assays reported here (HLA DRB1*0301, *0401, *0701, *1101, *1301, and *1501). The HLA identified for the cohort of subjects used in this study is representative of 81.81% of the HLA alleles expressed by the global population. Forty percent of the donors were female and 60% of the donors were male, and their ages ranged from 17 to 83 years. Donor cohort demographic information and HLA types for each donor are provided in Supplementary Figure S1. To measure the naïve T-cell response to salmon calcitonin and impurity peptides, cells were plated at a density of 2.5 × 10^5 cells per well in 96-well U-bottom cell plates in RPMI 1640 cell culture medium supplemented with IL-2 (10 ng/mL) and IL-7 (20 ng/mL) (Gibco). The cells were incubated with […]®, or a synthetic salmon calcitonin peptide, or individual peptide impurities, at a concentration of 20 μg/mL for 14 days at 37°C/5% CO2, with medium exchanges that include cytokine support (IL-2 and IL-7) on days 4, 7, and 11. A concentration of 20 μg/mL (5.8 μM) was the dose selected for the SCT API and the four selected impurities, following a dose-ranging study performed with […]® to determine the maximum dose at which a T-cell response could be observed with no observed toxicity to the cells. The dose-ranging study was performed following the same protocol as described above. The following control antigens were used in the T-cell assays for each of the PBMC samples: positive controls, keyhole limpet hemocyanin (KLH; Thermo Fisher), and the antigenic peptide pool CEFT (ImmunoSpot). In addition, human serum albumin (HSA; Sigma-Aldrich) was used as a negative control antigen, and phytohemagglutinin (PHA; Thermo Fisher), a T-cell mitogen, was used to confirm T-cell functionality. […] Responses were considered positive if (1) the number of spots was at least twice the background (stimulation index [SI] ≥ 2); (2) there were greater than 50 spot-forming cells (SFCs) per 1.0 × 10^6 PBMCs; and (3) responses were statistically different from the media (Student's t-test). Each of the test articles (SCT API, RLD, or impurity peptide) and each of the positive and negative controls were evaluated in nine replicate wells containing donor PBMCs. Following the 14-day incubation, cells in the nine replicate wells were collected, pooled by the treatment condition, and re-plated in triplicate on a precoated anti-human IFNγ FluoroSpot plate (Mabtech) at a concentration of 1.0 × 10^5 cells per well in the presence of an appropriate test article or control reagent in supplemented RPMI 1640 culture medium. The FluoroSpot plates were incubated for 48 h at 37°C/5% CO2. After 48 h, FluoroSpot plates were developed according to the manufacturer's directions. Spots were counted on an iSpot Spectrum FluoroSpot reading system (AID, Strassberg, Germany) using software 7.0, build 14790. Fluorophore-specific spot parameters were defined using the spot size, spot intensity, and spot gradient. A spot separation algorithm was applied for optimal spot detection. Analysis and counting of spots were performed by unbiased experts at ZellNet Consulting, Inc. (Fort Lee, NJ).

Compound | IC50 [1] [µM] | IC50 ([2]; unit inferred) [µM] | IC50, HLA DRB1*0301 ([2]; unit not given) | IC50 [3] [µM] | IC50, HLA DRB1*0401 [3] | IC50 [4] [µM] | IC50, HLA DRB1*0701 [4] | IC50 [5] [µM] | IC50, HLA DRB1*0901 [5] | IC50 ([6]; unit inferred) [µM] | IC50, HLA DRB1*1101 ([6]; unit not given) | IC50 ([7]; unit inferred) [µM] | IC50, HLA DRB1*1301 ([7]; unit not given) | IC50 [8] [µM] | Percentage of Responding Donors [9] [%] | Responding Donors [9]
CC(=O)NCCCC[C@H](NC(=O)CNC(=O)[C@H](CC(C)C)NC(=O)[C@@H](NC(=O)[C@H](CO)NC(=O)[C@@H](NC(=O)[C@@H](N)CO)[C@@H](C)O)C(C)C)C(=O)N[C@@H](CC(C)C)C(=O)N[C@@H](CO)C(=O)N[C@@H](CCC(N)=O)C(=O)N[C@@H](CCC(=O)O)C(=O)N[C@@H](CC(C)C)C(=O)N[C@@H](Cc1c[nH]cn1)C(=O)N[C@@H](CCCCN)C(=O)N[C@@H](CC(C)C)C(=O)O [LYS-AC11_SCT(5-19)] (H-STSVLGK(Ac)LSQELHKL-OH) | 12.3 | > 1000 | non-binder | > 1000 | non-binder | > 1000 | non-binder | > 1000 | non-binder | > 1000 | loss of binding | > 1000 | non-binder | 12.8 |  | 
CSNLSTCVLGKLSQELHKLQTYPRTNTGSGTTP (disulfide 1-7 (inferred)) [17_ENDO-THR31_SCT, full-length SCT impurity, insertion of threonine at position 31] |  |  |  |  |  |  |  |  |  |  |  |  |  |  | 69 | 11
CSNLSTCVLGKLSQELHKLETYPRTNTGSGTP (disulfide) (disulfide 1-7 (inferred)) [07_Q20E_SCT, full-length SCT impurity, glutamine 20 deamidated to glutamic acid] |  |  |  |  |  |  |  |  |  |  |  |  |  |  | 56 | 9
